Results on 9 compounds are retold here after patent US20250034144A1, “NEW CRYSTAL FORM OF ERTAPENEM SODIUM AND PREPARATION METHOD THEREFOR” (ASYMCHEM LABORATORIES (TIANJIN) CO., LTD., priority 2021, published 2025).

Each structure is given as a SMILES string.

Series [1] is described as follows: Fluidity related test (densities, Carr index, Hausner ratio, angle of repose). It is filed as physicochemical. The procedure:
(Two) A fluidity related test was carried out on the crystal form A product of ertapenem sodium, the crystal form B product, the crystal form C product, the crystal form D product, the crystal form E product and the amorphous product of ertapenem sodium. [formula] [formula] [table]

Series [2] in a line: Stability of the product at −18° C. (purity and content over 12 months). It counts as physicochemical. The procedure: Data of the stability of the product at −18° C. are shown in Table 2 below: […]

Consider `C[C@@H](O)[C@H]1C(=O)N2C(C(=O)[O-])=C(S[C@@H]3CN[C@H](C(=O)Nc4cccc(C(=O)O)c4)C3)[C@H](C)[C@H]12.[Na+]` [Crystal form A, ertapenem sodium], for which, in series [1], the Angle of repose is recorded as 43°, the Bulk density came out at 0.64 g/mL, the Carr index amounted to 22% and the Hausner ratio came to 1.28. In addition, in series [1], the Tap density came to 0.82 g/mL.
Consider `C[C@@H](O)[C@H]1C(=O)N2C(C(=O)[O-])=C(S[C@@H]3CN[C@H](C(=O)Nc4cccc(C(=O)O)c4)C3)[C@H](C)[C@H]12.[Na+]` [Example 2, ertapenem sodium], for which the Content is listed as 99.1% in series [2] (0 month); 99.1% in series [2] (1 month); 99.1% in series [2] (2 months); 99.1% in series [2] (3 months); 99.1% in series [2] (4 months); 99.0% in series [2] (5 months). The Content in series [2] (6 months), in series [2] (7 months), in series [2] (8 months), in series [2] (9 months), in series [2] (10 months) and in series [2] (11 months) was 99.0% throughout. In addition, the Content in series [2] (12 months) was found to be 99.0%. In addition, the Purity in series [2] (0 month) came out at 99.2%; in series [2] (1 month), 99.2%; in series [2] (2 months) it was 99.2%; in series [2] (3 months), 99.2%; in series [2] (4 months) it was 99.2%; in series [2] (5 months), 99.1%. Besides, the Purity in series [2] (6 months) was 99.1%; in series [2] (7 months), 99.1%; in series [2] (8 months), 99.1%; in series [2] (9 months), 99.1%; in series [2] (10 months), 99.0%; in series [2] (11 months) it was 99.0%. Besides, in series [2] (12 months), the Purity is 99.0%. The “Stability of the crystal form product (in words)” value in series [2] (12 months) is listed as “very stable”.
With `C[C@@H](O)[C@H]1C(=O)N2C(C(=O)[O-])=C(S[C@@H]3CN[C@H](C(=O)Nc4cccc(C(=O)O)c4)C3)[C@H](C)[C@H]12.[Na+]` [Crystal form F, ertapenem sodium], in series [1], the Angle of repose amounted to 23°, the Bulk density was determined as 0.64 g/mL, the Carr index is 10% and the Hausner ratio is on record as 1.11. In addition, in series [1], the Tap density turned out to be 0.71 g/mL. The “Fluidity (in words)” value in series [1] (compared with crystal forms A-E and the amorphous product) is given as “better fluidity”.
In the case of `C[C@@H](O)[C@H]1C(=O)N2C(C(=O)[O-])=C(S[C@@H]3CN[C@H](C(=O)Nc4cccc(C(=O)O)c4)C3)[C@H](C)[C@H]12.[Na+]` [Crystal form E, ertapenem sodium], in series [1], the Angle of repose stood at 46°, the Bulk density is 0.66 g/mL, the Carr index was found to be 20% and the Hausner ratio is listed as 1.26. Also, the Tap density in series [1] stood at 0.83 g/mL.
Regarding `C[C@@H](O)[C@H]1C(=O)N2C(C(=O)[O-])=C(S[C@@H]3CN[C@H](C(=O)Nc4cccc(C(=O)O)c4)C3)[C@H](C)[C@H]12.[Na+]` [Example 1, ertapenem sodium], the Content stood at 99.2% in series [2] (0 month); 99.2% in series [2] (1 month); 99.2% in series [2] (2 months); 99.2% in series [2] (3 months); 99.2% in series [2] (4 months); 99.1% in series [2] (5 months). Further, the Content in series [2] (6 months) stood at 99.1%; in series [2] (7 months), 99.1%; in series [2] (8 months), 99.1%; in series [2] (9 months), 99.1%; in series [2] (10 months), 99.1%; in series [2] (11 months) it was 99.0%. This compound came in with a Content in series [2] (12 months) of 99.0%. The Purity in series [2] (0 month) is given as 99.4%; in series [2] (1 month) it was 99.4%; in series [2] (2 months), 99.4%; in series [2] (3 months) it was 99.4%; in series [2] (4 months) it was 99.3%; in series [2] (5 months), 99.3%. Besides, the Purity in series [2] (6 months) was 99.3%; in series [2] (7 months), 99.3%; in series [2] (8 months), 99.3%; in series [2] (9 months), 99.3%; in series [2] (10 months), 99.3%; in series [2] (11 months), 99.2%. In series [2] (12 months), this compound came in with a Purity of 99.2%. Besides, the “Stability of the crystal form product (in words)” value in series [2] (12 months) is listed as “very stable”.
On to `C[C@@H](O)[C@H]1C(=O)N2C(C(=O)[O-])=C(S[C@@H]3CN[C@H](C(=O)Nc4cccc(C(=O)O)c4)C3)[C@H](C)[C@H]12.[Na+]` [Crystal form B, ertapenem sodium], for which, in series [1], the Angle of repose came out at 41°, the Bulk density is 0.63 g/mL, the Carr index is 20% and the Hausner ratio was determined as 1.25. In addition, the Tap density in series [1] was 0.79 g/mL.
As for `C[C@@H](O)[C@H]1C(=O)N2C(C(=O)[O-])=C(S[C@@H]3CN[C@H](C(=O)Nc4cccc(C(=O)O)c4)C3)[C@H](C)[C@H]12.[Na+]` [Crystal form C, ertapenem sodium], in series [1], the Angle of repose was found to be 43°, the Bulk density was 0.63 g/mL, the Carr index was found to be 19% and the Hausner ratio stood at 1.24. Also, the Tap density in series [1] is 0.78 g/mL.
The corresponding values for `C[C@@H](O)[C@H]1C(=O)N2C(C(=O)[O-])=C(S[C@@H]3CN[C@H](C(=O)Nc4cccc(C(=O)O)c4)C3)[C@H](C)[C@H]12.[Na+]` [Crystal form D, ertapenem sodium] are 47°, 0.64 g/mL, 21%, 1.27 and 0.81 g/mL.
The corresponding values for `C[C@@H](O)[C@H]1C(=O)N2C(C(=O)[O-])=C(S[C@@H]3CN[C@H](C(=O)Nc4cccc(C(=O)O)c4)C3)[C@H](C)[C@H]12.[Na+]` [Amorphous, ertapenem sodium] are 47°, 0.63 g/mL, 20%, 1.25 and 0.79 g/mL.
